These results are taken from US11441142B2, “FLS variant having increased activity” (KONKUK UNIVERSITY INDUSTRIAL COOPERATION CORPORATION, priority 2017, dated 2022).

Each structure is given as a SMILES string. Positions count from the first letter of the chain named.

What all share (type): biochemical
Experiment [1] deals with T1, Pseudomonas fluorescens FLS (formolase) variant FLS:L482S, SEQ ID NO: 10 (Pseudomonas fluorescens, UniProt Q9F4L3, A28I/A394G/A480W/G419N/L482S/L90T/R188H/W89R).
T1 sequence (Q9F4L3 1-563 A28I/A394G/A480W/G419N/L482S/L90T/R188H/W89R): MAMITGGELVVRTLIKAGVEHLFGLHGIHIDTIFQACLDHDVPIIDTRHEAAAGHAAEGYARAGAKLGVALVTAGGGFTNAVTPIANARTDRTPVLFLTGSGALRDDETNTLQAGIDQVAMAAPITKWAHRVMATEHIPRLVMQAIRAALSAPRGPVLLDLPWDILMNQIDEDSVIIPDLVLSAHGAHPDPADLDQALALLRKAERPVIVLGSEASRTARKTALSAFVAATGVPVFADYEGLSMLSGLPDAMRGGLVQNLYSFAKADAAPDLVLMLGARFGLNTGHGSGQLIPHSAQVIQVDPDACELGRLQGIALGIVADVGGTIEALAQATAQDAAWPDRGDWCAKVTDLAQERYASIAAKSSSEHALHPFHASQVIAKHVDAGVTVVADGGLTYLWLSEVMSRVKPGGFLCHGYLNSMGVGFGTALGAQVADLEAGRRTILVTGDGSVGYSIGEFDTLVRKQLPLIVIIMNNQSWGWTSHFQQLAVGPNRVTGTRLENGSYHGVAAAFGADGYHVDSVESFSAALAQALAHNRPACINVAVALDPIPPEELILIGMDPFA
Description: kinetic parameters of FLS:L482S. The following applies: substrate acetaldehyde. On the procedure:
(§1) The kinetic parameters of EtDH and EtDH:D46G were identified by reacting the EtDH and EtDH:D46G with a reaction mixture containing 100 mM glycine-NaOH buffer solution (pH 9.5), 5 mM Mg^2+, 3 mM NAD^+/NADP^+ and 0.5 to 100 mM ethanol at room temperature. The kinetic parameters of FLS and variants thereof were identified by reacting FLS and variants thereof with a reaction mixture containing 100 mM phosphate buffer solution (pH 8.0), 1 mM Mg^+, 0.1 mM TPP and 0.5 to 20 mM acetaldehyde at room temperature. The kinetic parameters of BDH and BDH:S199A were identified by reacting BDH and BDH:S199A with a reaction mixture containing 50 mM Tris-HCl buffer solution (pH 7.5), 0.2 mM NADPH, 1 mM DTT; 0.5 to 100 mM acetoin or 0.5 to 10 mM butanone at room temperature. The Km and kcat values were identified using nonlinear regression fitting of the Michaelis-Menten equation and the fitting were repeated three times.
(§2) In order to compare the catalytic efficiencies via measurement of kinetic parameters of cascade enzymes and variants thereof in accordance with the present disclosure, the following experiment was performed. Specifically, the kinetic parameters of EtDH and EtDH:D46G were identified by reacting EtDH and EtDH:D46G with a reaction mixture containing 100 mM glycine-NaOH buffer solution (pH 9.5), 5 mM Mg^2+, 3 mM NAD^+/NADP^+ and 0.5 to 100 mM ethanol at room temperature. […]

The target of experiment [2] is T2, Pseudomonas fluorescens FLS (formolase), wild type, SEQ ID NO: 8 (Pseudomonas fluorescens, UniProt Q9F4L3, A28I/A394G/A480W/G419N/L90T/R188H/W89R).
T2 sequence (Q9F4L3 1-563 A28I/A394G/A480W/G419N/L90T/R188H/W89R): T1 sequence (Q9F4L3 1-563 A28I/A394G/A480W/G419N/L482S/L90T/R188H/W89R) with S482L
Description: kinetic parameters of FLS. The following applies: substrate acetaldehyde, coenzyme TPP (0.1 mM), pH 8.0, room temperature. On the procedure:
as §1, §2

Experiment [3] deals with T3, Pseudomonas fluorescens FLS (formolase) variant FLS:L482E, SEQ ID NO: 12 (Pseudomonas fluorescens, UniProt Q9F4L3, A28I/A394G/A480W/G419N/L482E/L90T/R188H/W89R).
T3 sequence (Q9F4L3 1-563 A28I/A394G/A480W/G419N/L482E/L90T/R188H/W89R): T1 sequence (Q9F4L3 1-563 A28I/A394G/A480W/G419N/L482S/L90T/R188H/W89R) with S482E
Description: kinetic parameters of FLS:L482E. The following applies: substrate acetaldehyde, coenzyme TPP (0.1 mM), pH 8.0, room temperature. On the procedure:
as §1, §2

The test system of experiment [4] is Pseudomonas fluorescens FLS (formolase) variant FLS:L482E, SEQ ID NO: 12. Description: kinetic parameters of FLS:L482E. The following applies: substrate acetaldehyde, coenzyme TPP. On the procedure:
as §1, §2

The target in experiment [5] is T4, Pseudomonas fluorescens FLS (formolase) variant FLS:L482R, SEQ ID NO: 11 (Pseudomonas fluorescens, UniProt Q9F4L3, A28I/A394G/A480W/G419N/L482R/L90T/R188H/W89R).
T4 sequence (Q9F4L3 1-563 A28I/A394G/A480W/G419N/L482R/L90T/R188H/W89R): T1 sequence (Q9F4L3 1-563 A28I/A394G/A480W/G419N/L482S/L90T/R188H/W89R) with S482R
Description: kinetic parameters of FLS:L482R. The following applies: substrate acetaldehyde. How it is done:
as §1, §2

The mark [6] stands for this setting: coenzyme TPP (0.1 mM), pH 8.0, room temperature.

In general, kcat/Km refers to the second-order rate constant that governs catalysis at low substrate concentration. As for `CC=O` [Acetaldehyde], the “increase of catalyst efficiency (kcat/Km) compared to wild-type FLS” value in experiment [1] (coenzyme TPP) amounted to 72.95%; in experiment [4], 25.62%; in experiment [5] (coenzyme TPP), 37.84%. Further, the kcat/Km in experiment [1] (setting [6]) amounted to 13.3 M⁻¹ s⁻¹; in experiment [2], 7.69 M⁻¹ s⁻¹; in experiment [3], 9.66 M⁻¹ s⁻¹; in experiment [5] (setting [6]), 10.6 M⁻¹ s⁻¹.
